Test results published in patent publication US8163804B2 (priority 2005, dated 2012).
Like-named read-outs stand apart in the source and are kept apart here.

Tests used:
[1] = test system: Green Peach Aphid (Myzus persicae); type: in vivo; conditions: 3 ppm, foliar spray on eggplant, 5 days after spraying
[2] = test system: Resistant Cotton Melon Aphid (Aphis gossypii); type: in vivo; conditions: 3 ppm, foliar spray on cucumber, 5 days after spraying
[3] = test system: Small Brown Planthopper (Laodelphax striatellus); assay: Insecticidal test on small brown planthopper, sprayed rice seedlings, mortality after 6 days; type: in vivo; conditions: 3 ppm, sprayed rice seedlings, 6 days after treatment
[4] = test system: 2-spotted Spider Mite (Tetranychus urticae); assay: Insecticidal test on 2-spotted spider mite, kidney bean leaf disc with eggs, hatchability of larvae after 6 days; type: in vivo; conditions: 50 ppm; 6 days after spraying
[5] = test system: Small Brown Planthopper (Laodelphax striatellus); assay: Control test on small brown planthopper, nursery box application of paddy rice, number of parasitic insects after 40 and 60 days; type: in vivo; conditions: 5 gai/box
Method: (§1) Control Test on Small Brown Planthopper (Laodelphax striatellus) and Rice Leafroller (Cnaphalocrocis medinalis) on Nursery Box Application of Paddy Rice
(§2) Rice (cultivar: Nihonbare) cultured in a nursery box was treated with 50 g of a granule formulation per box, and then transplanted to the rice field. For the control effect against Laodelphax striatellus, the number of parasitic insects was examined for 30 stumps per plot after 40 days and 60 days from the transplantation. In addition, for the control effect against Cnaphalocrocis medinalis, the number of infected leaves was examined for 100 stumps per plot after 50 days from the transplantation, and the infected leaf rate was calculated. In the Table, gai represents the amount of active ingredients (g).

[6] = test system: Rice Leafroller (Cnaphalocrocis medinalis); assay: Control test on rice leafroller, nursery box application of paddy rice, infected leaf rate after 50 days; type: in vivo; conditions: 5 gai/box; 50 days after transplantation
Method: as §1, §2

[7] = test system: Tiger Moth (Trichoplusia ni); assay: Insecticidal test on tiger moth, cabbage leaf dip, mortality after 6 days; type: in vivo; conditions: 0.5 ppm; 6 days after treatment
[8] = test system: Rice Blast (Pyricularia oryzae); type: in vivo; conditions: in vivo
[9] = test system: Common Straight Swift Butterfly (Parnara guttata); assay: Control test on common straight swift butterfly of paddy rice, powder spray, number of insects after 20 days (Test Example 8); type: in vivo; conditions: 20 gai/10a; 20 days after spraying
[10] = test system: Rice Blast (Pyricularia oryzae); type: in vivo; conditions: in vivo; remark: listed apart in the source
[11] = test system: Common Straight Swift Butterfly (Parnara guttata); assay: Control test on common straight swift butterfly of paddy rice, powder spray, number of insects after 20 days (Test Example 9); type: in vivo; conditions: 20 gai/10a; 20 days after spraying
Text: (§3) Control Test on Common Straight Swift Butterfly (Parnara guttata) and Sheath Blight (Rhizoctonia solani) of Paddy Rice
(§4) A powder of a prescribed amount was sprayed on rice (cultivar: koshihikari) after 70 days from the transplantation (middle of May) Leaves on which Parnara guttata was parasitic before spraying were eliminated. After 20 days from spraying, the number of insects was examined for 100 stumps in each plot. Furthermore, 7 days before spraying, Rhizoctonia solani cultured on a bran medium was inoculated into the base of the plant. After 30 days from spraying, the number of infected stumps was examined for 100 stumps in each plot and the rate of infected stumps was calculated. In the Table, gai represents the amount of active ingredients (g).

[12] = test system: Sheath Blight (Rhizoctonia solani); assay: Control test on sheath blight of paddy rice, powder spray, rate of infected stumps after 30 days; type: in vivo; conditions: 20 gai/10a; 30 days after spraying
Text: as §3, §4

[13] = test system: Oriental Fruit Moth (Grapholita molesta); assay: Control test on oriental fruit moth of pear, spray, rate of infected fruit after 40 days; type: in vivo; conditions: 50 ppm; 40 days after spraying
Method: (§5) Control Test on Oriental Fruit Moth (Grapholita molesta) and Scab (Venturia nashicola) of Pear
(§6) A liquid chemical which was prepared to the prescribed concentration was sufficiently sprayed on 17-year-old pears (cultivar: Hosui) (early June). After 40 days from spraying, the number of infected fruits due to Grapholita molesta was examined for all fruit in the plot, and the rate of infected fruit was calculated. Furthermore, after 14 days from spraying, infection of Venturia nashicola was examined by the degrees for optional 200 leaves in the plot and the severity index was calculated according to the following equation. Severity index=Z(number of infected leaves by the degrees×index)×100/(number of examined leaves×5)

[14] = test system: Scab (Venturia nashicola); assay: Control test on scab of pear, spray, severity index after 14 days; type: in vivo; conditions: 50 ppm; 14 days after spraying
Method: as §5, §6

[15] = test system: Cucumber Moth (Diaphania indica); assay: Insecticidal test on cucumber moth, sprayed cucumber leaves, mortality; type: in vivo; conditions: 10 ppm
Method: (§7) Insecticidal Test on Cucumber Moth (Diaphania indica) and Control Test on Powdery Mildew (Sphaerotheca fuliginea) of Cucumbers
(§8) A liquid chemical which was prepared to the prescribed concentration was sufficiently sprayed on cucumbers (cultivar: sagami-hanpaku) cultured in a greenhouse. After 7 days from spraying, leaves were cut off and put into a plastic cup (diameter: 10 cm, height: 10 cm) along with 5 of second-stage larvae of Diaphania indica, and the mortality was examined 4 days thereafter. Furthermore, 1 day after spraying, the leaves of cucumbers which were previously arranged to be infected by pathogen were uniformly wiped with Sphaerotheca fuliginea thereon using a paintbrush for inoculation and examined after 10 days thereafter. The area occupied by lesion per leaf of cucumber was examined in accordance with the following index, and the control value was calculated from the average severity index of each plot according to the following equation (two replications).

[16] = test system: Powdery Mildew (Sphaerotheca fuliginea); assay: Control test on powdery mildew of cucumbers, spray, control value from severity index; type: in vivo; conditions: 10 ppm
Method: as §7, §8
Severity Index • 0: No lesion • 1: Lesion area was not more than 5% • 2: Lesion area was from 6 to 25% • 3: Lesion area was from 26 to 50% • 4: Lesion area was not less than 51% Control Value=(1−average severity in the treated plot/average severity in the untreated plot)×100

[17] = test system: Turnip Moth (Agrotis segetum); assay: Control test on turnip moth of cabbage, soil treatment, rate of infected stumps after 7 days; type: in vivo; conditions: 100 gai/10a; 7 days after treatment
Method: (§9) Control Test on Turnip Moth (Agrotis segetum) and Clubroot (Plasmodiophora brassicae) of Cabbage due to Soil Treatment
(§10) A powder in a prescribed amount was mixed to soil and cabbages (cultivar: shiki-kaku) cultured on a cell medium were planted out. After 7 days from the treatment, the number of infected stumps due to Agrotis segetum was examined and the rate of infected stumps was calculated. Furthermore, after 60 days from the treatment, stumps were picked out, and lesion formation of Plasmodiophora brassicase was examined according to the degrees of severity. The control value was calculated from the average severity index of each plot according to the following equation. In the Table, gai represents the amount of active ingredients (g).

[18] = test system: Clubroot (Plasmodiophora brassicae); assay: Control test on clubroot of cabbage, soil treatment, control value after 60 days; type: in vivo; conditions: 100 gai/10a; 60 days after treatment
Method: as §9, §10
Severity Index • 0: No clubroot attached • 1: Clubroot was attached at a portion of from 1 to 25% of the whole root • 2: Clubroot was attached at a portion of from 25 to 50% of the whole root • 3: Clubroot was attached at a portion of from 50 to 75% of the whole root • 4: Clubroot was attached at a portion of from 75% or more of the whole root Control Value=(1−average severity in the treated plot/average severity in the untreated plot)×100

[19] = test system: Rice Striped Stem Borer (Chilo suppressalis); conditions: 5 gai/box

SMILES: Cc1cc(C(F)(C(F)(F)F)C(F)(F)F)cc(C)c1NC(=O)c1cccc(N(C)C(=O)c2cccnc2Cl)c1F [Compound 1245]
- Control rate (%) [1]: 12%
- Control rate (%) [2]: 15%
- Mortality (%) [3]: 5%
- Hatchability of larvae (%) [4]: 85%
- Laodelphax striatellus Number of parasitic insects/30 stumps ([5]; 40 days): 82 insects/30 stumps
- Laodelphax striatellus Number of parasitic insects/30 stumps ([5]; 60 days): 140 insects/30 stumps
- Cnaphalocrocis medinalis Infected leaf rate (%) [6]: 0.32%
- Mortality (%) [7]: 70%
- Pyricularia oryzae Control value [8]: 0
- Number (insects/100 stumps) [9]: 2 insects/100 stumps
- Pyricularia oryzae Control value [10]: 0
- Number of insects (number/100 stumps) [11]: 2 number/100 stumps
- Rate of infected stumps (%) [12]: 98%
- Grapholita molesta Infected fruit rate (%) [13]: 2.8%
- Venturia nashicola Severity index [14]: 51.6
- Diaphania indica Mortality (%) [15]: 90%
- Sphaerotheca fuliginea Control value [16]: 0
- Agrotis segetum Infected stump rate (%) [17]: 2.8%
- Plasmodiophora brassicae Control value [18]: 6
- Chilo suppressalis Mortality (%) [19]: 95%
